# Test results reported in patent US4108991A, “N-aminosulfenyl derivatives of aldicarb” (priority 1976, dated 1978).
# Tested on: Mexican bean beetle
# Assay: Initial contact activity, leaf dip, Mexican bean beetle
# Format: in vivo, Epilachna varivestis Muls.
# Conditions: Epilachna varivestis, foliar, 48 h, initial, BB, 156 PPM, 48 hours; read-out: Percent Kill
# Experimental: (§1) Initial Contact Activity: One half gram of test compound was dissolved in 40 ml of acetone and this solution was dispersed in 360 ml of water containing one drop of isooctylphenyl polyethoxyethanol. Aliquots of this solution, which corresponds to 1250 ppm of active ingredient, were diluted with an appropriate amount of water to provide solutions containing various concentrations of active ingredient. Test organisms and techniques were as follows: The activity against the Mexican bean beetle (Epilachna varivestis Muls.) and the southern armyworm (Spodoptera eridania [Cram.]) was evaluated by dipping the leaves of pinto bean plants into the test solution and infesting the leaves with the appropriate immature-form insects when the foiliage had dried; the activity against the pea aphid (Acyrthosiphon pisum [Harris]) was evaluated on broad bean plants whose leaves were dipped before infestation with adult aphids; the activity against two-sotted spider mites (Tetranychus urticae Koch) was evaluated on pinto bean plants whose leaves were dipped after infestation with adult mites; the activity against the milkweed bug (Oncopeltus fasciatus [Dallas]), and the plum curculio (Conotrachelus nenuphar [Herbst]) was evaluated by spraying the test solutions into glass dishes or jars containing the adult insects; the activity against the confused flour beetle (Tribolium confusum duVal) was evaluated by introducing the insects into glass dishes which had been previously sprayed with test solution and allowed to dry. All organisms in the test were maintained in a holding room at 80° F and 50% relative humidity for an exposure period of 48 hours. At the end of this time, the dead and living insects or mites were counted, and the percent kill was calculated.
row,Compound,mortality at 156 ppm [%]
1,"CCCCN(CCCC)SN(C)C(=O)ON=CC(C)(C)SC [Example III, 2-methyl-2-(methylthio)propanal O-[(dibutylaminosulfenyl)(methyl)carbamoyl]oxime]",40

# Same assay, conditions: Epilachna varivestis, foliar, 48 h, initial, BB, 312 PPM, 48 hours; read-out: Percent Kill
row,Compound,mortality at 312 ppm [%]
1,"CCCCN(CCCC)SN(C)C(=O)ON=CC(C)(C)SC [Example III, 2-methyl-2-(methylthio)propanal O-[(dibutylaminosulfenyl)(methyl)carbamoyl]oxime]",63

# Same assay, conditions: Epilachna varivestis, foliar, 48 h, initial, BB, 625 PPM, 48 hours; read-out: Percent Kill
row,Compound,mortality at 625 ppm [%]
1,"CCCCN(CCCC)SN(C)C(=O)ON=CC(C)(C)SC [Example III, 2-methyl-2-(methylthio)propanal O-[(dibutylaminosulfenyl)(methyl)carbamoyl]oxime]",95

# Same assay, conditions: Epilachna varivestis, foliar, 48 h, initial, BB, 1250 PPM, 48 hours; read-out: Percent Kill
row,Compound,mortality at 1250 ppm [%]
1,"CCCCN(CCCC)SN(C)C(=O)ON=CC(C)(C)SC [Example III, 2-methyl-2-(methylthio)propanal O-[(dibutylaminosulfenyl)(methyl)carbamoyl]oxime]",100

# Tested on: Two-spotted spider mite
# Assay: Residual (7-day) contact activity, two-spotted spider mite
# Format: in vivo, Tetranychus urticae Koch
# Conditions: Tetranychus urticae, 168 h, residual 7-day, SM, 156 PPM; read-out: Percent Kill
# Experimental: as §1
# (§2) Residual Contact Activity: The residual contact activity of the compounds was determined on the same organisms using the techniques described above, except that in each case the treated surface was allowed to dry and was exposed to normal light and air for seven days before introduction of the mites or insects.
row,Compound,mortality at 156 ppm [%]
1,"CCCCN(CCCC)SN(C)C(=O)ON=CC(C)(C)SC [Example III, 2-methyl-2-(methylthio)propanal O-[(dibutylaminosulfenyl)(methyl)carbamoyl]oxime]",18

# Same assay, conditions: Tetranychus urticae, 168 h, residual 7-day, SM, 312 PPM; read-out: Percent Kill
row,Compound,mortality at 312 ppm [%]
1,"CCCCN(CCCC)SN(C)C(=O)ON=CC(C)(C)SC [Example III, 2-methyl-2-(methylthio)propanal O-[(dibutylaminosulfenyl)(methyl)carbamoyl]oxime]",45

# Same assay, conditions: Tetranychus urticae, 168 h, residual 7-day, SM, 1250 PPM; read-out: Percent Kill
row,Compound,mortality at 1250 ppm [%]
1,"CCCCN(CCCC)SN(C)C(=O)ON=CC(C)(C)SC [Example III, 2-methyl-2-(methylthio)propanal O-[(dibutylaminosulfenyl)(methyl)carbamoyl]oxime]",100

# Tested on: Pea aphid
# Assay: Residual (7-day) contact activity, pea aphid
# Format: in vivo, Acyrthosiphon pisum [Harris]
# Conditions: Acyrthosiphon pisum, 168 h, residual 7-day, PA, 156 PPM; read-out: Percent Kill
# Experimental: as §1, §2
row,Compound,mortality at 156 ppm [%]
1,"CCCCN(CCCC)SN(C)C(=O)ON=CC(C)(C)SC [Example III, 2-methyl-2-(methylthio)propanal O-[(dibutylaminosulfenyl)(methyl)carbamoyl]oxime]",0

# Same assay, conditions: Acyrthosiphon pisum, 168 h, residual 7-day, PA, 312 PPM; read-out: Percent Kill
row,Compound,mortality at 312 ppm [%]
1,"CCCCN(CCCC)SN(C)C(=O)ON=CC(C)(C)SC [Example III, 2-methyl-2-(methylthio)propanal O-[(dibutylaminosulfenyl)(methyl)carbamoyl]oxime]",0

# Same assay, conditions: Acyrthosiphon pisum, 168 h, residual 7-day, PA, 1250 PPM; read-out: Percent Kill
row,Compound,mortality at 1250 ppm [%]
1,"CCCCN(CCCC)SN(C)C(=O)ON=CC(C)(C)SC [Example III, 2-methyl-2-(methylthio)propanal O-[(dibutylaminosulfenyl)(methyl)carbamoyl]oxime]",0

# Tested on: Mexican bean beetle
# Assay: Systemic activity, soil-watering, Mexican bean beetle
# Format: in vivo, Epilachna varivestis Muls.
# Conditions: Epilachna varivestis, 48 h, systemic, BB, 39 PPM; read-out: Percent Kill
# Experimental: as §1
# Systemic Activity: Systemic activity was measured using a soil-watering technique. Test organisms were Mexican bean beetle, southern armyworm, pea aphid, and mites on plants as described above in this Example. With appropriate precautions to avoid contact of the solution with the test plant surfaces, 25 ml of a test solution, prepared as above to contain the desired amount of active ingredient, were poured evenly over the surface of the soil in which the plant was growing. The treated plants were maintained under normal growing conditions for three days to permit translocation of the toxicant, after which the leaves were infested. Two days after infestation, counts of living and dead insects were made.
row,Compound,mortality at 39 ppm [%]
1,"CCCCN(CCCC)SN(C)C(=O)ON=CC(C)(C)SC [Example III, 2-methyl-2-(methylthio)propanal O-[(dibutylaminosulfenyl)(methyl)carbamoyl]oxime]",20

# Same assay, conditions: Epilachna varivestis, 48 h, systemic, BB, 156 PPM; read-out: Percent Kill
row,Compound,mortality at 156 ppm [%]
1,"CCCCN(CCCC)SN(C)C(=O)ON=CC(C)(C)SC [Example III, 2-methyl-2-(methylthio)propanal O-[(dibutylaminosulfenyl)(methyl)carbamoyl]oxime]",100

# Tested on: Plum curculio
# Assay: Residual (7-day) contact activity, plum curculio
# Format: in vivo, Conotrachelus nenuphar [Herbst]
# Conditions: Conotrachelus nenuphar, 168 h; residual 7-day, PC, 156 PPM; read-out: Percent Kill
# Experimental: as §1, §2
row,Compound,mortality at 156 ppm [%]
1,"CCCCN(CCCC)SN(C)C(=O)ON=CC(C)(C)SC [Example III, 2-methyl-2-(methylthio)propanal O-[(dibutylaminosulfenyl)(methyl)carbamoyl]oxime]",5

# Same assay, conditions: Conotrachelus nenuphar, 168 h; residual 7-day, PC, 312 PPM; read-out: Percent Kill
row,Compound,mortality at 312 ppm [%]
1,"CCCCN(CCCC)SN(C)C(=O)ON=CC(C)(C)SC [Example III, 2-methyl-2-(methylthio)propanal O-[(dibutylaminosulfenyl)(methyl)carbamoyl]oxime]",9.5

# Same assay, conditions: Conotrachelus nenuphar, 168 h; residual 7-day, PC, 1250 PPM; read-out: Percent Kill
row,Compound,mortality at 1250 ppm [%]
1,"CCCCN(CCCC)SN(C)C(=O)ON=CC(C)(C)SC [Example III, 2-methyl-2-(methylthio)propanal O-[(dibutylaminosulfenyl)(methyl)carbamoyl]oxime]",5

# Tested on: Plum curculio
# Assay: Initial contact activity, spray, plum curculio
# Format: in vivo, Conotrachelus nenuphar [Herbst]
# Conditions: Conotrachelus nenuphar; initial, PC, 10 PPM, 48 hours; read-out: Percent Kill
# Experimental: as §1
row,Compound,mortality at 10 ppm [%]
1,"CCCCN(CCCC)SN(C)C(=O)ON=CC(C)(C)SC [Example III, 2-methyl-2-(methylthio)propanal O-[(dibutylaminosulfenyl)(methyl)carbamoyl]oxime]",0

# Same assay, conditions: Conotrachelus nenuphar; initial, PC, 39 PPM, 48 hours; read-out: Percent Kill
row,Compound,mortality at 39 ppm [%]
1,"CCCCN(CCCC)SN(C)C(=O)ON=CC(C)(C)SC [Example III, 2-methyl-2-(methylthio)propanal O-[(dibutylaminosulfenyl)(methyl)carbamoyl]oxime]",5

# Same assay, conditions: Conotrachelus nenuphar; initial, PC, 156 PPM, 48 hours; read-out: Percent Kill
row,Compound,mortality at 156 ppm [%]
1,"CCCCN(CCCC)SN(C)C(=O)ON=CC(C)(C)SC [Example III, 2-methyl-2-(methylthio)propanal O-[(dibutylaminosulfenyl)(methyl)carbamoyl]oxime]",0

# Same assay, conditions: Conotrachelus nenuphar; initial, PC, 1250 PPM, 48 hours; read-out: Percent Kill
row,Compound,mortality at 1250 ppm [%]
1,"CCCCN(CCCC)SN(C)C(=O)ON=CC(C)(C)SC [Example III, 2-methyl-2-(methylthio)propanal O-[(dibutylaminosulfenyl)(methyl)carbamoyl]oxime]",55

# Tested on: not listed separately
# Assay: Toxicity to rats, acute oral median lethal dose (LD50), Method A
# Format: in vivo, young female albino rats, derived from Sprague-Dawley stock
# Conditions: in vivo, rat, corn oil, 14 days observation
# Experimental: (§3) Method A: Young female albino rats, derived from Sprague-Dawley stock and weighing between 175 and 200 g, were used. An initial screening was conducted to determine the general level of toxicity of the test compounds and to establish the dosing range to be used with each compound. The test materials were suspended in corn oil and administered directly into the stomachs of the rats, using a hypodermic syringe equipped with a ball-tipped intubating needle. A range of dosing levels was employed utilizing two rats at each level. […] This method was used to determine the toxicity to rats of the compounds of Examples I, II, and III and aldicarb.
row,Compound,LD50 at 336 h [mg/kg]
1,"CCCCN(CCCC)SN(C)C(=O)ON=CC(C)(C)SC [Example III, 2-methyl-2-(methylthio)propanal O-[(dibutylaminosulfenyl)(methyl)carbamoyl]oxime]",12.5

# Tested on: rats
# Assay: as above
# Format: in vivo, young female albino rats, derived from Sprague-Dawley stock
# Conditions: rat
# Experimental: as §3
row,Compound,LD50 relative to that of aldicarb [times]
1,"CCCCN(CCCC)SN(C)C(=O)ON=CC(C)(C)SC [Example III, 2-methyl-2-(methylthio)propanal O-[(dibutylaminosulfenyl)(methyl)carbamoyl]oxime]",25
